From ChEMBL document CHEMBL1146379, “Solid phase synthesis and SAR of small molecule agonists for the GPR40 receptor” (Bioorg Med Chem Lett, 2007) come the findings set out here.

The structures appear in SMILES notation. pEC50: −log10 of the molar value. In brackets after ≈: the same amount, converted by molar mass.

For data set [1], the target named is T1, Free fatty acid receptor 1 (Homo sapiens, UniProt O14842). Briefly: Agonist activity at GPR40 receptor. The class given is functional.
Data set [2] concerns the target T1, Free fatty acid receptor 1. Description: Agonist activity at GPR40 receptor expressed in CHO cells by reporter gene assay. It counts as functional, cell-based.
A short description of data set [3]: Solubility at pH 7.4. It counts as physicochemical. Particulars: buffer.
Data set [4] can be described thus: Distribution coefficient, log D at pH 7.4. Particulars: octanol/water. The class given is physicochemical.

T1 sequence (O14842 whole entry): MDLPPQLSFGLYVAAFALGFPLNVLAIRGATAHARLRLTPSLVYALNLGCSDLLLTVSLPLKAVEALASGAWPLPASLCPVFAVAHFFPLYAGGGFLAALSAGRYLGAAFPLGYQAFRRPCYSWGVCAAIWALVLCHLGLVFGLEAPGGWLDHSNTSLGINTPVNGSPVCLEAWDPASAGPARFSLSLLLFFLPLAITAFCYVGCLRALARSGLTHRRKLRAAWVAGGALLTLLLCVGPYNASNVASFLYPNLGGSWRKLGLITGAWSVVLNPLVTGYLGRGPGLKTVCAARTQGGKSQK

As to `O=C(O)C1CC1c1ccc(NCc2ccc(-c3ccccc3)cc2)cc1` (stereo unspecified), in data set [1], the pEC50 – broadly, −log10 of the EC50, conventionally taken in molar units – is 7.40. For the same compound, the %max in data set [2] turned out to be 80%. The matching figures for `O=C(O)CCc1ccc(NCc2ccc(Cl)c(Cl)c2)cc1`: 6.60 and 117%. In turn, `COc1ccc(CNc2ccc(CCC(=O)O)cc2)cc1` showed a pEC50 in data set [1] of 5.90. Also, in data set [2], the %max stood at 159%. The matching figures for `O=C(O)C1CC1c1ccc(NCc2cccc(Oc3ccccc3)c2)cc1` (stereo unspecified): 7.30 and 74%. The compound `O=C(O)CCc1ccc(NCc2ccccc2)cc1` gave a pEC50 in data set [1] of 5.10. In data set [2], this compound displayed a %max of 144%. In data set [2], `CC(C(=O)O)c1ccc(NCc2ccc(-c3ccccc3)cc2)cc1` (stereo unspecified) showed a %max of 21%. The compound `O=C(O)CCc1ccc(NCc2cc(C(F)(F)F)cnc2Cl)cc1` had a pEC50 in data set [1] of 5.30. The compound further came in with a %max in data set [2] of 112%. The matching figures for `O=C(O)Cc1ccc(NCc2cccc(Oc3ccccc3)c2)cc1`: 5.40 and 32%.

For the compound `O=C(O)CCc1ccc(NCc2ccc(Cl)s2)cc1`, the %max in data set [2] came to 143%. In data set [1], `O=C(O)CCc1ccc(NCc2ccc(-c3ccccc3)cc2)cc1` showed a pEC50 of 6.60. In data set [2], this compound gave a %max of 111%.

In data set [1], `O=C(O)CCc1cccc(NCc2ccc(-c3ccccc3)cc2)c1` had a pEC50 of 6.30. The %max in data set [2] turned out to be 160%. The compound `O=C(O)CCc1ccc(NCc2cccc(F)c2)cc1` had a pEC50 in data set [1] of 5.30. Further, the %max in data set [2] turned out to be 120%. In turn, `CS(=O)(=O)Nc1cccc(CNc2ccc(CCC(=O)O)cc2)c1` displayed a %max in data set [2] of 9%. In data set [1], `O=C(O)CCc1cccc(NCc2cccc(Oc3ccccc3)c2)c1` gave a negative-log EC50 (pEC50) of 6.40. The %max in data set [2] was 148%.

For the compound `O=C(O)CCc1ccc(NCc2ccc(C(F)(F)F)cc2)cc1`, the %max in data set [2] was found to be 133%. Turning to `O=C(O)CCCc1ccc(NCc2cccc(Oc3ccccc3)c2)cc1`, the pEC50 in data set [1] was 5.50. Moreover, in data set [2], the %max is 74%.

`O=C(O)CCc1ccc(NCc2ccccc2Cl)cc1` gave a negative logarithm of the EC50 (pEC50) in data set [1] of 5.40. Also, in data set [2], the %max is 122%.

In turn, `CN(C)Cc1ccc(CNc2ccc(CCC(=O)O)cc2)cc1` registered a %max in data set [2] of 12%. Consider `O=C(O)CCc1ccc(NCc2ccc(Cl)cc2)cc1`, for which, in data set [1], the pEC50 is 6.00. Moreover, the solubility (in general, how much of the substance goes into solution per volume) in data set [3] stood at 830 µg/mL (≈ 2860 µM). Moreover, the logD (usually the decadic logarithm of the distribution of all forms, ionised or not, between an organic phase and buffer at a given pH) in data set [4] was 0.98. The compound also yielded a %max in data set [2] of 111%. `O=C(O)CCc1ccc(NCc2ccc(O)cc2)cc1` came in with a %max in data set [2] of 37%. Same read-out and setting: to `N#Cc1ccc(CNc2ccc(CCC(=O)O)cc2)cc1` belongs 49%.

In data set [1], `Cc1ccc(CNc2ccc(CCC(=O)O)cc2)cc1` had a negative-log EC50 (pEC50) of 5.40. Also, in data set [2], the %max amounted to 152%. In data set [2], `NC(=O)c1cccc(CNc2ccc(CCC(=O)O)cc2)c1` had a %max of 18%. `O=C(O)Cc1ccc(NCc2ccc(-c3ccccc3)cc2)cc1` had a pEC50 in data set [1] of 4.91. Further, in data set [2], the %max stood at 69%.

`O=C(O)CCc1ccc(NCc2ccc3ccccc3c2)cc1` had a negative logarithm of the EC50 (pEC50) in data set [1] of 6.10. Further, the %max in data set [2] worked out at 123%. The compound `O=C(O)CCc1ccc(NCc2ncc[nH]2)cc1` came in with a %max in data set [2] of 4%. In data set [1], `CC(C(=O)O)c1ccc(NCc2cccc(Oc3ccccc3)c2)cc1` (stereo unspecified) gave a pEC50 of 4.78. Also, in data set [2], the %max was determined as 34%. On the same counts, the results for `O=C(O)CCc1ccc(NCc2cccc(Br)c2)cc1` are 6.10 and 120%. In data set [1], `O=C(O)CCCc1ccc(NCc2ccc(-c3ccccc3)cc2)cc1` gave a pEC50 of 5.80. In addition, the %max in data set [2] stood at 62%.

In data set [2], `O=C(O)CCc1ccc(NCc2ccc3c(c2)OCO3)cc1` came in with a %max of 141%.

As for `O=C(O)CCc1ccc(NCc2ccc(C(=O)O)cc2)cc1`, the %max in data set [2] stood at 9%. In the case of `O=C(O)CCc1ccc(NCc2ccc(Oc3ccccc3)cc2)cc1`, the pEC50 in data set [1] is 6.71. Moreover, the %max in data set [2] came to 139%. Compound `O=C(O)CCc1ccc(NCc2cccnc2)cc1` registered a %max in data set [2] of 4%.
